Experimental data: patent US4610994A, “1,2,3-triazole anticonvulsant drugs” (priority 1984, dated 1986)
Where “and” joins values, the source holds several entries; their conditions need not be identical. Equal values may be shown once. Entries after “also recorded” stand apart in the source; their conditions may differ. Read-outs that look alike come from different tables or passages of the source.

Legend:
[1] = system: maximal electro-shock seizure (MES) and subcutaneous pentylenetetrazole (Metrazole) seizure threshold (scMet); assay: Phase I anticonvulsant screening (MES test and scMet test); type: in vivo, mouse; conditions: for signs of neurological deficit: at effective dose levels (Class I) or 300 mg/kg (8, 13); for Anticonvulsant Activity Group Classification: mouse, MES and scMet tests, doses up to 300 mg/kg; for protection: 300 mg/kg
[2] = system: subcutaneous Picrotoxin seizures; assay: subcutaneous Picrotoxin Seizure Threshold Test (sc Pic) in mice; type: in vivo, mice (male albino, CF No. 1); conditions: mice i.p., Compound 10 up to 300 mg/kg
Method: (§1) All animals were allowed free access to both food (S/L Custom Lab Diet-7) and water, except when they were removed from their cages for the experimental procedure.
(§2) The drugs were administered either orally or intraperitoneally in a volume of 0.01 ml/g body weight in mice and 0.04 ml/10 g in rats. All tests were conducted at the previously determined time of peak drug effect.
(§3) The profile of anticonvulsant activity for each substance was established by five tests: one electrical and four chemical. The electrical test employed was the maximal electroshock seizure pattern test. […] Except for the sc Strych Test, these tests measure the ability of anticonvulsants to afford complete protection against threshold seizures induced by the subcutaneous injection of the CD97 of the convulsant agent.
(§4) All convulsants were administered subcutaneously into a loose fold of skin on the back of the neck in a volume of 0.01 ml/g body weight in mice; Metrazol was injected in a volume of 0.02 ml/10 g body weight in rats. The convulsant drugs were administered at the previously determined time of peak anticonvulsant action of the drug under study. […] Except for strychnine, absence of a five-second episode of clonic spasms (threshold seizure) was taken as protection. In the case of strychnine, complete abolition of the hindleg tonic extension was taken as protection.

[3] = Phase III toxicity profile (overt signs and symptoms) in mice i.p.; conditions: for Profile of acute toxicity, 1 x TD50: 1TD50; for Profile of acute toxicity, 2 x TD50: 2TD50; for Profile of acute toxicity, 4 x TD50: 4TD50
Method: (§5) The profile of toxicity for each test drug was established by the following procedures: Firstly, the minimal neurotoxic dose (TD50) was determined by the rotorod procedure at the time of peak neurotoxic effect. When a normal mouse is placed on a knurled rod one inch in diameter rotating at a speed of six rpm it can maintain its equilibrium for long periods of time. Neurological deficit is indicated by inability of the mouse to maintain its equilibrium for one minute in each of three trials on this rotating rod. […] The HD50 represents the median dose at which 50% of animals lose their righting reflex.

[4] = system: subcutaneous Bicuculline seizures; assay: subcutaneous Bicuculline Seizure Threshold Test (sc Bic) in mice; type: in vivo, mice (male albino, CF No. 1); conditions: mice i.p., Compound 10 up to 300 mg/kg
Method: as §1, §2, §3, §4

[5] = in vivo; conditions: mouse, po
Method: as §1, §2
(§6) The profile of toxicity for each test drug was established by the following procedures: Firstly, the minimal neurotoxic dose (TD50) was determined by the rotorod procedure at the time of peak neurotoxic effect. When a normal mouse is placed on a knurled rod one inch in diameter rotating at a speed of six rpm it can maintain its equilibrium for long periods of time. Neurological deficit is indicated by inability of the mouse to maintain its equilibrium for one minute in each of three trials on this rotating rod. Neurological deficit in rats is indicated by ataxia, loss of placing response and muscle tone.

[6] = system: maximal electroshock seizures; assay: maximal electroshock seizure (MES) pattern test in mice; conditions: for ED97: MES; for TPE: test not specified
Method: as §1, §2, §3

[7] = in vivo; conditions: mouse, ip
[8] = loss of righting reflex (HD50) in mice i.p.; design: species or system mice (male albino, CF No. 1)
Method: as §5

[9] = system: subcutaneous Metrazol seizures; assay: subcutaneous Metrazol Seizure Threshold Test (sc Met) in mice; conditions: for ED97: sc Met
Method: as §1, §2, §3, §4

[10] = system: subcutaneous Strychnine seizures; type: in vivo, mice (male albino, CF No. 1); conditions: for animals protected in the sc Strych test: mice, i.p.; for effectiveness by the sc Strych test: mice i.p., Compound 10 up to 300 mg/kg
Method: as §1, §2, §3, §4

[11] = sc convulsant dose CD97 in rats; type: in vivo; conditions: Rattus norvegicus, subcutaneous
From the text: as §3

[12] = type: in vivo; conditions: mice, subcutaneous
From the text: as §3

[13] = system: subcutaneous Metrazol seizures; assay: subcutaneous Metrazol Seizure Threshold Test (sc Met) in rats; conditions: for ED97: oral, sc Met
Method: as §1, §2, §3, §4

[14] = system: maximal electroshock seizures; assay: maximal electroshock seizure (MES) pattern test in rats
Method: as §1, §2, §3

[15] = minimal neurotoxicity (ataxia, loss of placing response and muscle tone) in rats; conditions: rats, oral
Method: as §1, §2, §6

[16] = in vivo; conditions: rat, po
Method: as §1, §2, §6

[17] = rats, oral, higher doses; cited from earlier work
[18] = mice, i.p., 95% confidence interval
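Wherever Rotorod TD50 is given: mice on rotorod: neurological deficit scored when the animal cannot keep balance for 1 min in every one of three trials on a 1-inch knurled rod turning at 6 rpm.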
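Wherever time of peak toxicity, rotorod is given: mice on rotorod: neurological deficit scored when the animal cannot keep balance for 1 min in every one of three trials on a 1-inch knurled rod turning at 6 rpm.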

For `Clc1ccc(-n2nncc2-c2ccccc2)cc1` [Compound 1, 1-(p-Chlorophenyl)-5-phenyl-1H--1,2,3-triazole], the “signs of neurological deficit” value [1] was “do not exhibit significant signs of neurological deficit”.

In the case of `Brc1ccc(-n2nncc2-c2ccccc2)cc1` [Compound 2, 1-(p-Bromophenyl)-5-phenyl-1H--1,2,3-triazole], the “signs of neurological deficit” value [1] is reported as “do not exhibit significant signs of neurological deficit”.

For `c1ccc(-n2nncc2-c2ccncc2)cc1` [Compound 3, 1-Phenyl-5-(4-pyridyl)-1H--1,2,3-triazole], the “signs of neurological deficit” value [1] was “do not exhibit significant signs of neurological deficit”.

In the case of `Fc1ccc(-n2nncc2-c2ccncc2)cc1` [Compound 4, 1-(p-Fluorophenyl)-5-(4-pyridyl)-1H--1,2,3-triazole], the “Anticonvulsant Activity Group Classification” value [1] is reported as “II (Class II compounds show anticonvulsant activity at doses greater than 100 mg/kg or show activity at 100 mg/kg which is not reinforced by similar activity at 300 mg/kg)”.

With `Cc1ccc(-n2nncc2-c2ccncc2)cc1` [Compound 5, 1-(p-Tolyl)-5-(4-pyridyl)-1H--1,2,3-triazole] the “Anticonvulsant Activity Group Classification” value [1] was “II (Class II compounds show anticonvulsant activity at doses greater than 100 mg/kg or show activity at 100 mg/kg which is not reinforced by similar activity at 300 mg/kg)”.

With `COc1ccc(-n2nncc2-c2ccncc2)cc1` [Compound 6, 1-(p-Anisyl)-5-(4-pyridyl)-1H--1,2,3-triazole] the “Anticonvulsant Activity Group Classification” value [1] was “II (Class II compounds show anticonvulsant activity at doses greater than 100 mg/kg or show activity at 100 mg/kg which is not reinforced by similar activity at 300 mg/kg)”.

With `Clc1ccc(-n2nncc2-c2ccncc2)cc1Cl` [Compound 8, 1-(3,4-Dichlorophenyl)-5-(4-pyridyl)-1H--1,2,3-triazole] the protection [1] was 100%, the “signs of neurological deficit” value [1] was “without any signs of neurological deficit” and the “Anticonvulsant Activity Group Classification” value [1] was “II (Class II compounds show anticonvulsant activity at doses greater than 100 mg/kg or show activity at 100 mg/kg which is not reinforced by similar activity at 300 mg/kg)”.

With `Brc1ccc(-n2nncc2-c2cccnc2)cc1` [Compound 11, 1-(p-bromophenyl)-5-(3-pyridyl)-1H-1,2,3-triazole] the “signs of neurological deficit” value [1] was “do not exhibit significant signs of neurological deficit”.

For `Fc1ccc(-n2nncc2-c2cccnc2)cc1` [Compound 12, 1-(p-Fluorophenyl)-5-(3-pyridyl)-1H--1,2,3-triazole], the “signs of neurological deficit” value [1] was “do not exhibit significant signs of neurological deficit”.

For `Clc1ccc(-n2nncc2-c2cccnc2)cc1Cl` [Compound 13, 1-(3,4-Dichlorophenyl)-5-(3-pyridyl)-1H--1,2,3-triazole], the protection [1] was 100%, the “signs of neurological deficit” value [1] was “without any signs of neurological deficit” and the “Anticonvulsant Activity Group Classification” value [1] was “II (Class II compounds show anticonvulsant activity at doses greater than 100 mg/kg or show activity at 100 mg/kg which is not reinforced by similar activity at 300 mg/kg)”.

In the case of `Clc1ccc(-n2nncc2-c2ccccn2)cc1` [Compound 14, 1-(p-Chlorophenyl)-5-(2-pyridyl)-1H--1,2,3-triazole], the “signs of neurological deficit” value [1] is reported as “do not exhibit significant signs of neurological deficit”.

For `Cc1cccc(-n2nncc2-c2ccncc2)c1` [Compound 17, 1-(m-Tolyl)-5-(4-pyridyl)-1H--1,2,3-triazole], the “Anticonvulsant Activity Group Classification” value [1] was “II (Class II compounds show anticonvulsant activity at doses greater than 100 mg/kg or show activity at 100 mg/kg which is not reinforced by similar activity at 300 mg/kg)”.

In the case of `FC(F)(F)c1ccc(-n2nncc2-c2cccnc2)cc1` [Compound 19, 1-(p-Trifluoromethylphenyl)-5-(3-pyridyl)-1H--1,2,3-triazole], the “Anticonvulsant Activity Group Classification” value [1] is reported as “II (Class II compounds show anticonvulsant activity at doses greater than 100 mg/kg or show activity at 100 mg/kg which is not reinforced by similar activity at 300 mg/kg)”.

With `CCC1(C)CC(=O)NC1=O` (centres unmarked) [Ethosuximide] the “effectiveness by the sc Pic test” value [2] was “effective”, the “Profile of acute toxicity, 1 x TD50” value [3] was “Uncoordinated” and the “Profile of acute toxicity, 2 x TD50” value [3] was “Uncoordinated”. The “Profile of acute toxicity, 4 x TD50” value [3] was “Uncoordinated”, the “Rotorod TD50” value [18] was 440.83(383.09-485.34) mg/kg and the “Rotorod TD50” value (mice, i.p., 95% confidence interval, listed as ethosuximide) was 440.83 mg/kg. For the same compound, the “Rotorod TD50” value (mouse, in vivo, ip) was 44,.83(383.09-485.34) mg/kg, the TD50 (mouse, in vivo, po) was 879,21 mg/kg and the “effectiveness by the sc Bic test” value [4] was “had to be given in toxic doses to protect against sc Bic seizures”. For the same compound, the TD50 [5] was 879 mg/kg, the “protection from maximal electroshock seizures” value ([6]; mice, i.p.) was “not able to protect mice from maximal electroshock seizures” and the “MES ED50” value [6, 18] was over 1000 mg/kg. For the same compound, the LD50 at 24 h [7] was 1750 mg/kg, the “HD50 (righting reflex)” value ([8]; mouse, in vivo, ip) was 850.61(751.19-917.93) mg/kg and the TD50 ([8]; mouse, in vivo, ip, HD50 (righting reflex)) was 851 mg/kg. For the same compound, the “effectiveness by the sc Met test” value ([9]; mice, i.p.) was “effective”, the “sc Met ED50” value [9, 18] was 130.35 mg/kg and 130.35(110.99-150.45) mg/kg and the “sc Met ED50” value ([9]; mice, p.o.) was 192.21 mg/kg. For the same compound, the “animals protected in the sc Strych test” value [10] was at most 62%.

With `C1CCc2nnnn2CC1` [Metrazol] the ED97 [11] was 70 mg/kg and the “sc CD97” value [12] was 85 mg/kg.

In the case of `CCC1(c2ccccc2)C(=O)NC(=O)NC1=O` [Phenobarbital], the ED97 [13] is reported as 34, the “effectiveness by the sc Pic test” value [2] is reported as “effective by all four anticonvulsant tests” and the “effectiveness by the sc Pic test” value ([2]; listed as phenobarbital) is reported as “effective by these tests”. For the same compound, the “Profile of acute toxicity, 1 x TD50” value [3] was “Ataxia with in-”, the “Profile of acute toxicity, 2 x TD50” value [3] was “Ataxia with in-” and the TD3 (mice, i.p., MES) was 57. For the same compound, the TD3 (mice, i.p., sc Met) was 57, the TD3 (mice, oral, MES) was 58 and the TD3 (mice, oral, sc Met) was 58. For the same compound, the “effectiveness by the sc Bic test” value [4] was “effective by all four anticonvulsant tests”, the “effectiveness by the sc Bic test” value ([4]; listed as phenobarbital) was “effective by these tests” and the ED97 ([14]; Rattus norvegicus, po) was 26 mg/kg. For the same compound, the TPE ([14]; rats p.o., test not specified) was “five”, the ED97 ([6]; mice, i.p.) was 29 and the ED97 ([6]; mice, oral) was 46. For the same compound, the ED97 ([9]; mice, i.p.) was 27, the ED97 ([9]; mice, oral) was 38 and the “effectiveness by the sc Strych test” value [10] was “had to be given in toxic doses in order to protect against this chemical convulsant”. For the same compound, the “effectiveness by the sc Strych test” value ([10]; listed as phenobarbital) was “effective by these tests”, the TD3 ([15]; MES) was 14 and the TD3 ([15]; sc Met) was 14.

In the case of `O=C1NC(=O)C(c2ccccc2)(c2ccccc2)N1` [Phenytoin], the “effectiveness by the sc Met test” value ([13]; p.o.) is reported as “ineffective”, the “effectiveness by the sc Pic test” value [2] is reported as “ineffective” and the TD50 [16] is reported as over 3000 mg/kg. The “Profile of acute toxicity, 1 x TD50” value [3] was “activity, slight ataxia, fre-”, the “Profile of acute toxicity, 2 x TD50” value [3] was “Mild ataxia,” and the “absorption from the gastrointestinal tract” value [17] was “absorbed only to a limited extent”. For the same compound, the “time of peak toxicity, rotorod” value (mouse, in vivo, ip) was 2 h, the “effectiveness by the sc Bic test” value [4] was “ineffective” and the “HD50 (righting reflex)” value [8, 18] was 178.34(152.93-195.45) mg/kg. The “HD50 (righting reflex)” value ([8]; mice, i.p., 95% confidence interval, listed as phenytoin) was 178.34 mg/kg, the “time of peak toxicity (TPE), righting reflex” value ([8]; mouse, in vivo, ip) was 12 h and the “effectiveness by the sc Met test” value ([9]; mice i.p., listed as phenytoin) was “did not protect against subcutaneous Metrazol seizures”. The “effectiveness by the sc Met test” value ([9]; mice, i.p.) was “ineffective”, the “sc Met ED50” value [9, 18] was over 300 mg/kg and the “animals protected in the sc Strych test” value [10] was 50%.

In the case of `CCCC(CCC)C(=O)O` [Valproate], the ED97 [13] is reported as 188, the “effectiveness by the sc Pic test” value [2] is reported as “effective by all four anticonvulsant tests; also recorded: effective by these tests” and the “Profile of acute toxicity, 1 x TD50” value [3] is reported as “Mild ataxia”. The “Profile of acute toxicity, 2 x TD50” value [3] was “Ataxia”, the “Profile of acute toxicity, 4 x TD50” value [3] was “Both animals died” and the TD3 (mice, i.p., MES) was 345. It also gave a TD3 (mice, i.p., sc Met) of 345, a TD3 (mice, oral, MES) of 500 and a TD3 (mice, oral, sc Met) of 500. For the same compound, the “effectiveness by the sc Bic test” value [4] was “effective by all four anticonvulsant tests; also recorded: effective by these tests”, the TPE ([6]; mice i.p.) was “one-fourth” and the TPE ([6]; mice p.o.) was “one to two”. For the same compound, the ED97 ([6]; mice, i.p.) was 380, the “MES ED50” value [6, 18] was 271.66(246.97-337.89) mg/kg and the “MES ED50” value ([6]; mice, i.p., 95% confidence interval, listed as valproate) was 271.66 mg/kg. For the same compound, the ED97 ([6]; mice, oral) was 840, the “MES ED50” value ([6]; mice, p.o.) was 664.80 mg/kg and the “HD50 (righting reflex)” value [8, 18] was 885.53 mg/kg and 885.53(820.86-947.04) mg/kg. The TD50 ([8]; mouse, in vivo, ip, mice, i.p., 95% confidence interval, read-out: HD50 (righting reflex)) was 886 mg/kg, the “effectiveness by the sc Met test” value ([9]; mice, i.p.) was “effective by all four anticonvulsant tests” and the ED97 ([9]; mice, i.p.) was 218. The “sc Met ED50” value [9, 18] was 148.59(122.64-177.02) mg/kg, the ED97 ([9]; mice, oral) was 680 and the “sc Met ED50” value ([9]; mice, p.o.) was 388.31 mg/kg. The “effectiveness by the sc Strych test” value [10] was “effective against strychnine in nontoxic doses; also recorded: effective by these tests”, the TD3 ([15]; MES) was 115 and the TD3 ([15]; sc Met) was 115.

With `CN1CCc2cc3c(cc2[C@H]1[C@@H]1OC(=O)c2c1ccc1c2OCO1)OCO3` [bicuculline] the “sc CD97” value [12] was 2.70 mg/kg.

For `O=C1C[C@@H]2OCC=C3CN4CC[C@]56c7ccccc7N1[C@H]5[C@H]2[C@H]3C[C@H]46` [strychnine], the “sc CD97” value [12] was 1.20 mg/kg.

With picrotoxin the “sc CD97” value [12] was 3.15 mg/kg.
